This is an account of results in patent US20240246955A1, “TROPOMYOSIN RECEPTOR KINASE (TRK) DEGRADATION COMPOUNDS AND METHODS OF USE” (CULLGEN (SHANGHAI), INC., priority 2021, published 2024).

Structures are written as SMILES. Bounds are passed on as bounds.

One assay has as its system KM12 cells. Nature of the assay: KM12 cell viability assay (CellTiter-Glo). In kind it is cell-based. Particulars: for IC50: Homo sapiens, 72 h, KM12 cells, 3 days, CellTiter-Glo; for viability of KM12 cells: 11-point 3-fold serial dilution, 3 days (FIG. 3). The protocol:
The kinase activity of TRK is known to play important roles in tumors expressing TRK-fusion proteins, as TRK kinase inhibitors compromise cell proliferation, survival, and induce marked clinical responses (Amatu et al., 2016; Drilon et al., 2018; Drilon et al., 2017; Khotskaya et al., 2017). KM12 cells seeded in 96-well plates were treated with heterobifunctional compounds following a 11-point 3-fold serial dilution. Three days after treatment, cell viability was determined using the CellTiter-Glo kit, and normalized to the mean values of 3 replicates of untreated cells. Dose-dependent response was analyzed following the least-squares non-linear regression method using the GraphPad Prism software. Each data point in the figure represents the mean values of three technical replicates ±standard deviation.
KM12 cells seeded in 96-well plates were treated with heterobifunctional compounds following a 11-point 3-fold serial dilution for 3 days.
KM12, TRKA G595R mutated KM12, HEL, and other cells were cultured at 37° C. with 5% CO2 in DMEM or RPMI 1640 Medium supplemented with 10% fetal bovine serum. Cells were authenticated using the short tandem repeat (STR) assays. Mycoplasma test results were negative.
Cells were seeded at a density of 5000 cells per well in 96-well assay plates and treated with test compounds following a 11-point 3-fold serial dilution. Three days later, cell viability was determined using the CellTiter-Glo assay kit (Promega) according to the manufacturer's instructions. The dose-response curves were determined and IC50 values were calculated using the GraphPad Prism software following a nonlinear regression (least squares fit) method.
(Cellular ATP, detected with luciferase, serves as a proxy for viable cell number.)

For a further assay, the target named is T1, TPM3-TRKA fusion protein (Homo sapiens, UniProt P04629).
T1 construct: TPM3 (N-terminal part of tropomyosin alpha-3, natural fusion partner); endogenous in cells; host or cells: KM12 colon cancer cells; the other entry of the earlier key: TPM3 (P06753, Tropomyosin alpha-3 chain)
Nature of the assay: TPM3-TRKA degradation in KM12 cells (Western blot). In kind it is cell-based. Particulars: 16 hours, TRK protein, immunoblot; for inhibition at 0.01 µM: 10 nM; for inhibition at 0.1 µM: 100 nM. As for the experimental part: Specific exemplary heterobifunctional compounds were characterized in KM12 cells. KM12 cells that express TPM3-TRKA fusion protein were treated with 10 nM or 100 nM heterobifunctional compounds disclosed herein or their corresponding warheads/inhibitors for 16 hours. Cells were collected, lysed and subject to immunoblotting using an antibody specific to TRK proteins.
KM12 cells were treated with heterobifunctional compounds at 10 nM or 100 nM for 16 hours.
Cultured cells were washed with cold PBS once and lysed in cold RIPA buffer supplemented with protease inhibitors and phosphatase inhibitors (Beyotime Biotechnology). The solutions were then incubated at 4° C. for 30 minutes with gentle agitation to fully lyse cells. Cell lysates were centrifuged at 13,000 rpm for 10 minutes at 4° C. and pellets were discarded. Total protein concentrations in the lysates were determined by BCA assays (Beyotime Biotechnology). Cell lysates were mixed with Laemmli loading buffer to 1× and heated at 99° C. for 5 min. Proteins were resolved on SDS-PAGE and visualized by chemiluminescence. Images were taken by a ChemiDoc MP Imaging system (Bio-Rad). Protein bands were quantitated using the software provided by Bio-Rad.
The percentage of TRK protein degradation of each compound at 10 nM and 100 nM was determined in KM12 cells as described in Methods. The percentage of degradation of each compound was indicated in the following categories: N/A: data not available; −: no degradation; +: degradation less than 50%; ++: degradation equal or greater than 50% but less than […]; +++: degradation equal or greater than 80%.
Background: Immunoblotting shows a protein as a band on a membrane.

T1 sequence (P04629 with tags, fused parts or gaps): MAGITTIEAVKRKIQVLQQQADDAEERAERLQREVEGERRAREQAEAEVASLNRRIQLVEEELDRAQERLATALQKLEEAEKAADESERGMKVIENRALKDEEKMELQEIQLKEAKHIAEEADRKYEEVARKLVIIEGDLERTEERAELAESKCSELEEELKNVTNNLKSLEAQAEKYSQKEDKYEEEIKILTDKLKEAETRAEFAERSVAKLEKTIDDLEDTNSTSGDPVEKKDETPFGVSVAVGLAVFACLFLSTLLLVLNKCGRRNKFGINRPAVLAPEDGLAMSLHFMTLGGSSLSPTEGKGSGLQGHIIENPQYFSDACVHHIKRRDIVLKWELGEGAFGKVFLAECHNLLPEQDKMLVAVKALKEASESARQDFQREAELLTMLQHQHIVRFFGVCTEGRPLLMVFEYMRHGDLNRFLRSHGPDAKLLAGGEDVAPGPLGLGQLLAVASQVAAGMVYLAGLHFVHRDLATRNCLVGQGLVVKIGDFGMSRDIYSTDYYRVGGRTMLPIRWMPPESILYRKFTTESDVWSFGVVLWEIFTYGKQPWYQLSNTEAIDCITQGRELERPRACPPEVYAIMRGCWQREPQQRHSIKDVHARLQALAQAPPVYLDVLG

As to `COCCN1C[C@@H](NC(=O)Nc2c(C)c(-c3cnc(N4CCN(C(=O)CCOCCOCCOCCOCCOCCNC(=O)C[C@H](NC(=O)[C@@H]5C[C@@H](O)CN5C(=O)[C@@H](NC(=O)C5(F)CC5)C(C)(C)C)c5ccc(-c6scnc6C)cc5)CC4)nc3)nn2-c2ccccc2)[C@H](c2cccc(F)c2)C1` [CPD-001, (2S,4R)-1-((S)-2-(1-fluorocyclopropane-1-carboxamido)-3,3-dimethylbutanoyl)-N-((S)-22-(4-(5-(5-(3-((3S,4R)-4-(3-fluorophenyl)-1-(2-methoxyethyl)pyrrolidin-3-yl)ureido)-4-methyl-1-phenyl-1H-pyrazol-3-yl)pyrimidin-2-yl)piperazin-1-yl)-1-(4-(4-methylthiazol-5-yl)phenyl)-3,22-dioxo-7,10,13,16,19-pentaoxa-4-azadocosyl)-4-hydroxypyrrolidine-2-carboxamide], the IC50 (in general, the concentration at which inhibition is half-maximal) in the assay on KM12 cells was determined as 518 nM.

As for `COCCN1C[C@@H](NC(=O)Nc2c(C)c(-c3cnc(N4CCN(C(=O)CCCNc5ccc6c(c5)C(=O)N(C5CCC(=O)NC5=O)C6=O)CC4)nc3)nn2-c2ccccc2)[C@H](c2cccc(F)c2)C1` (stereo partly drawn) [CPD-002, 1-(3-(2-(4-(4-((2-(2,6-dioxopiperidin-3-yl)-1,3-dioxoisoindolin-5-yl)amino)butanoyl)piperazin-1-yl)pyrimidin-5-yl)-4-methyl-1-phenyl-1H-pyrazol-5-yl)-3-((3S,4R)-4-(3-fluorophenyl)-1-(2-methoxyethyl)pyrrolidin-3-yl)urea], on TPM3-TRKA fusion protein, the inhibition – broadly, the change of the read-out against control, counted positive when it falls – at 0.01 µM is above 80% and the inhibition at 0.1 µM was above 80%. For the same molecule, in the assay with KM12 cells, the “viability of KM12 cells” value is recorded as “inhibited the viability” and 9.7 nM corresponded to half-maximal inhibition (IC50).

As to `COCCN1C[C@@H](NC(=O)Nc2c(C)c(-c3cnc(N4CCN(C(=O)CNc5cccc6c5C(=O)N(C5CCC(=O)NC5=O)C6=O)CC4)nc3)nn2-c2ccccc2)[C@H](c2cccc(F)c2)C1` (stereo partly drawn) [CPD-003, 1-(3-(2-(4-((2-(2,6-dioxopiperidin-3-yl)-1,3-dioxoisoindolin-4-yl)glycyl)piperazin-1-yl)pyrimidin-5-yl)-4-methyl-1-phenyl-1H-pyrazol-5-yl)-3-((3S,4R)-4-(3-fluorophenyl)-1-(2-methoxyethyl)pyrrolidin-3-yl)urea], at TPM3-TRKA fusion protein, the inhibition at 0.01 µM is above 80% and the inhibition at 0.1 µM is above 80%. For the same molecule, in the assay on KM12 cells, the “viability of KM12 cells” value is on record as “inhibited the viability” and the IC50 was 5.1 nM.

Consider `COCCN1C[C@@H](NC(=O)Nc2c(C)c(-c3cnc(N4CCN(C(=O)CCCNc5cccc6c5C(=O)N(C5CCC(=O)NC5=O)C6=O)CC4)nc3)nn2-c2ccccc2)[C@H](c2cccc(F)c2)C1` (stereo partly drawn) [CPD-004, 1-(3-(2-(4-(4-((2-(2,6-dioxopiperidin-3-yl)-1,3-dioxoisoindolin-4-yl)amino)butanoyl)piperazin-1-yl)pyrimidin-5-yl)-4-methyl-1-phenyl-1H-pyrazol-5-yl)-3-((3S,4R)-4-(3-fluorophenyl)-1-(2-methoxyethyl)pyrrolidin-3-yl)urea], for which, on TPM3-TRKA fusion protein, the inhibition at 0.01 µM is 50 to 800% and the inhibition at 0.1 µM fell in the range of 50 to 800%. Moreover, it took 25.8 nM to reach half-maximal inhibition with KM12 cells (IC50).

On to `COCCN1C[C@@H](NC(=O)Nc2c(C)c(-c3cnc(N4CCN(C(=O)CCOCCOCCOCCNc5cccc6c5C(=O)N(C5CCC(=O)NC5=O)C6=O)CC4)nc3)nn2-c2ccccc2)[C@H](c2cccc(F)c2)C1` (stereo partly drawn) [CPD-005, 1-(3-(2-(4-(3-(2-(2-(2-((2-(2,6-dioxopiperidin-3-yl)-1,3-dioxoisoindolin-4-yl)amino)ethoxy)ethoxy)ethoxy)propanoyl)piperazin-1-yl)pyrimidin-5-yl)-4-methyl-1-phenyl-1H-pyrazol-5-yl)-3-((3S,4R)-4-(3-fluorophenyl)-1-(2-methoxyethyl)pyrrolidin-3-yl)urea], for which, at TPM3-TRKA fusion protein, the inhibition at 0.01 µM was above 80% and the inhibition at 0.1 µM was above 80%. In addition, the midpoint of inhibition with KM12 cells, the IC50, lay at 47.3 nM.

Turning to `COCCN1C[C@@H](NC(=O)Nc2c(C)c(-c3cnc(N4CCN(C(=O)CCCCCCCNc5ccc6c(c5)C(=O)N(C5CCC(=O)NC5=O)C6=O)CC4)nc3)nn2-c2ccccc2)[C@H](c2cccc(F)c2)C1` (stereo partly drawn) [CPD-006, 1-(3-(2-(4-(8-((2-(2,6-dioxopiperidin-3-yl)-1,3-dioxoisoindolin-5-yl)amino)octanoyl)piperazin-1-yl)pyrimidin-5-yl)-4-methyl-1-phenyl-1H-pyrazol-5-yl)-3-((3S,4R)-4-(3-fluorophenyl)-1-(2-methoxyethyl)pyrrolidin-3-yl)urea], at TPM3-TRKA fusion protein, the inhibition at 0.01 µM was above 80% and the inhibition at 0.1 µM was above 80%. Moreover, it took 10.3 nM to reach half-maximal inhibition in the assay with KM12 cells (IC50).

Turning to `COCCN1C[C@@H](NC(=O)Nc2c(C)c(-c3cnc(N4CCN(C(=O)CCCCCNc5cccc6c5C(=O)N(C5CCC(=O)NC5=O)C6=O)CC4)nc3)nn2-c2ccccc2)[C@H](c2cccc(F)c2)C1` (stereo partly drawn) [CPD-007, 1-(3-(2-(4-(6-((2-(2,6-dioxopiperidin-3-yl)-1,3-dioxoisoindolin-4-yl)amino)hexanoyl)piperazin-1-yl)pyrimidin-5-yl)-4-methyl-1-phenyl-1H-pyrazol-5-yl)-3-((3S,4R)-4-(3-fluorophenyl)-1-(2-methoxyethyl)pyrrolidin-3-yl)urea], at TPM3-TRKA fusion protein, the inhibition at 0.01 µM is above 80% and the inhibition at 0.1 µM is above 80%. Inhibition with KM12 cells was half-maximal at 10.6 nM (IC50).

With `COCCN1C[C@@H](NC(=O)Nc2c(C)c(-c3cnc(N4CCN(C(=O)CCCCCNc5ccc6c(c5)C(=O)N(C5CCC(=O)NC5=O)C6=O)CC4)nc3)nn2-c2ccccc2)[C@H](c2cccc(F)c2)C1` (stereo partly drawn) [CPD-008, 1-(3-(2-(4-(6-((2-(2,6-dioxopiperidin-3-yl)-1,3-dioxoisoindolin-5-yl)amino)hexanoyl)piperazin-1-yl)pyrimidin-5-yl)-4-methyl-1-phenyl-1H-pyrazol-5-yl)-3-((3S,4R)-4-(3-fluorophenyl)-1-(2-methoxyethyl)pyrrolidin-3-yl)urea], on TPM3-TRKA fusion protein, the inhibition at 0.01 µM is above 80% and the inhibition at 0.1 µM is above 80%. The IC50 in the assay on KM12 cells turned out to be 10.6 nM.

On to `COCCN1C[C@@H](NC(=O)Nc2c(C)c(-c3cnc(N4CCN(C(=O)CCCCCCCNc5cccc6c5C(=O)N(C5CCC(=O)NC5=O)C6=O)CC4)nc3)nn2-c2ccccc2)[C@H](c2cccc(F)c2)C1` (stereo partly drawn) [CPD-009, 1-(3-(2-(4-(8-((2-(2,6-dioxopiperidin-3-yl)-1,3-dioxoisoindolin-4-yl)amino)octanoyl)piperazin-1-yl)pyrimidin-5-yl)-4-methyl-1-phenyl-1H-pyrazol-5-yl)-3-((3S,4R)-4-(3-fluorophenyl)-1-(2-methoxyethyl)pyrrolidin-3-yl)urea], for which, at TPM3-TRKA fusion protein, the inhibition at 0.01 µM is above 80% and the inhibition at 0.1 µM was above 80%. Besides, in the assay on KM12 cells, the IC50 was 13.6 nM.

Consider `COCCN1C[C@@H](NC(=O)Nc2c(C)c(-c3cnc(N4CCN(C(=O)CCOCCOCCOCCOCCNc5cccc6c5C(=O)N(C5CCC(=O)NC5=O)C6=O)CC4)nc3)nn2-c2ccccc2)[C@H](c2cccc(F)c2)C1` (stereo partly drawn) [CPD-010, 1-(3-(2-(4-(1-((2-(2,6-dioxopiperidin-3-yl)-1,3-dioxoisoindolin-4-yl)amino)-3,6,9,12-tetraoxapentadecan-15-oyl)piperazin-1-yl)pyrimidin-5-yl)-4-methyl-1-phenyl-1H-pyrazol-5-yl)-3-((3S,4R)-4-(3-fluorophenyl)-1-(2-methoxyethyl)pyrrolidin-3-yl)urea], for which, on TPM3-TRKA fusion protein, the inhibition at 0.01 µM lay in the range of 50 to 800% and the inhibition at 0.1 µM is above 80%. In the assay with KM12 cells, 86.1 nM corresponded to half-maximal inhibition (IC50).
